Measurements reported in patent US20250195521A1 (Revolution Medicines, Inc., priority 2020, published 2025).
Several values for one entry are separate records, joined by “and”; a condition that tells them apart may be missing. Equal values may be shown once.

Assays:
[1] = target: K-Ras G12C(GMP-PNP) binding to BRAF RBD (Homo sapiens (Human), UniProt P01116+P62937, G12C); assay: Disruption of BRAF RBD interaction with K-Ras (FRET / MOA assay), K-Ras G12C; format: biochemical; details: read-out: KRAS G12C FRET IC50
K-Ras G12C(GMP-PNP) binding to BRAF RBD, sequence (P01116 other isoform, or with tags, fused parts or gaps G12C): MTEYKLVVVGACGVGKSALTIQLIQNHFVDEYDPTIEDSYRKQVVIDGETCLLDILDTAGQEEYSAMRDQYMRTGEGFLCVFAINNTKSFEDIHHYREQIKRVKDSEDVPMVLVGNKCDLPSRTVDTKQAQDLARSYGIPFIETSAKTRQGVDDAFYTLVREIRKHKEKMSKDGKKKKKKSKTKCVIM
K-Ras G12C(GMP-PNP) binding to BRAF RBD, sequence (P62937 whole entry): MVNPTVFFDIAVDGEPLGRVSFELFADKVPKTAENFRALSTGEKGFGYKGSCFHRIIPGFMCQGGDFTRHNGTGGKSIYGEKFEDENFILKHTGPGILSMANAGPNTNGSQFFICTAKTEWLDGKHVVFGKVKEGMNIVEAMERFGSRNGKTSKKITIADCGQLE
Description: Note—The following protocol describes a procedure for monitoring disruption of K-Ras G12C(GMP-PNP) binding to BRAF^RBD by a compound of the invention. This protocol may also be executed substituting other Ras proteins or nucleotides.
The purpose of this biochemical assay was to measure the ability of test compounds to facilitate ternary complex formation between a nucleotide-loaded K-Ras isoform and Cyclophilin A; the resulting ternary complex disrupts binding to a BRAF^RBD construct, inhibiting K-Ras signaling through a RAF effector. Data is reported as IC50 values.
Compound was present in plate wells as a 10-point 3-fold dilution series starting at a final concentration of 30 μM. After incubation at 25° C. for 3 hours, a mixture of Anti-His Eu—W1024 and anti-GST allophycocyanin was then added to assay sample wells at final concentrations of 10 nM and 50 nM, respectively, and the reaction incubated for an additional 1.5 hours. […] Compounds that facilitate disruption of a K-Ras: RAF complex were identified as those eliciting a decrease in the TR-FRET ratio relative to DMSO control wells.

[2] = tested on: NCI-H358 (K-Ras G12C); assay: CellTiter-Glo cell viability assay, NCI-H358; format: cell-based, human; details: Homo sapiens, NCI-H358, 120 h, 5-day treatment; read-out: H358 Cell Viability assay data (K-Ras G12C, IC50)
Method in brief: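 Five-day compound treatment of NCI-H358 cells, then CellTiter-Glo luminescence, percent of DMSO, four-parameter logistic fit.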

[3] = target: KRAS G12D (Homo sapiens (Human), UniProt P01116+P62937, G12D); assay: Ras-Raf disruption/FRET/MOA assay (BRAF RBD, Cyclophilin A); format: biochemical; details: read-out: KRAS G12D FRET IC50
KRAS G12D, sequence (P01116 other isoform, or with tags, fused parts or gaps G12D): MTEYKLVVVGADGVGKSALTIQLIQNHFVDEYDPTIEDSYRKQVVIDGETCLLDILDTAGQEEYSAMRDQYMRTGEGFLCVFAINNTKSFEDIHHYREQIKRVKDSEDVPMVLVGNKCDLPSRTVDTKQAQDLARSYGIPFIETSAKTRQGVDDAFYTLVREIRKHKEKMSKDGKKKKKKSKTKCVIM
KRAS G12D, sequence (P62937 whole entry): as the sequence (P62937 whole entry) above
Method in brief: (§1)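 TR-FRET read after 1.5 h with 10 nM anti-His Eu-W1024 and 50 nM anti-GST APC, following 3 h at 25 °C of GMPPNP-loaded His6-Ras (12.5 nM), GST-BRAF RBD (50 nM) and Cyclophilin A (25 μM) with compound from 30 μM final, 10 points, 3-fold. IC50 reported; pH 7.3 HEPES, 100 mM NaCl.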

[4] = target: KRAS G13D (Homo sapiens (Human), UniProt P01116+P62937, G13D); assay: as above; format: biochemical; details: read-out: KRAS G13D FRET data IC50
KRAS G13D, sequence (P01116 other isoform, or with tags, fused parts or gaps G13D): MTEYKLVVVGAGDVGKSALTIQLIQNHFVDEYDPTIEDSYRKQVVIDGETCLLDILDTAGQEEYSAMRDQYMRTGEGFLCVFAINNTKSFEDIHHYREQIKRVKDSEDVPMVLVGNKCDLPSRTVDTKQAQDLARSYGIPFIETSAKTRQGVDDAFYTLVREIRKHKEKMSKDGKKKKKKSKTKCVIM
KRAS G13D, sequence (P62937 whole entry): as the sequence (P62937 whole entry) above
Method in brief: as §1

[5] = target: NRAS G12C (Homo sapiens (Human), UniProt P01111+P62937, G12C); assay: as above; format: biochemical; details: read-out: NRAS G12C FRET data IC50
NRAS G12C, sequence (P01111 whole entry G12C): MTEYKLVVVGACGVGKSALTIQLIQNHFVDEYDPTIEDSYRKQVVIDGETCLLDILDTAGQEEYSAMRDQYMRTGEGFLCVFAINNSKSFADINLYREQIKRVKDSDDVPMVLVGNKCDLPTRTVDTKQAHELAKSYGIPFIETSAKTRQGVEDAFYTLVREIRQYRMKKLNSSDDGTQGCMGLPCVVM
NRAS G12C, sequence (P62937 whole entry): as the sequence (P62937 whole entry) above
Method in brief: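 TR-FRET readout: anti-His Eu-W1024 (10 nM) and anti-GST allophycocyanin (50 nM) added after 3 h, 25° C compound incubation, then 1.5 h more. Decrease in FRET ratio versus DMSO wells marks Ras:RAF disruption; IC50 reported.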

[6] = target: KRAS WT (Homo sapiens (Human), UniProt P01116+P62937); assay: as above; format: biochemical; details: read-out: KRAS WT FRET data IC50
KRAS WT, sequence (P01116 other isoform, or with tags, fused parts or gaps): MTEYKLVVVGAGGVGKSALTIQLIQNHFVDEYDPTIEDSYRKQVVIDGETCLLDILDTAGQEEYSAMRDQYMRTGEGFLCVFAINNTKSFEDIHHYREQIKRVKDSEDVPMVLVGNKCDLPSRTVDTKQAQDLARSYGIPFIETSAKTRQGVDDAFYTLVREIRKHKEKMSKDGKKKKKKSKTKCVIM
KRAS WT, sequence (P62937 whole entry): as the sequence (P62937 whole entry) above
Method in brief: as §1

[7] = target: KRAS G12C (Homo sapiens (Human), UniProt P01116+P62937, G12C); assay: as above; format: biochemical; details: read-out: KRAS G12C FRET IC50
KRAS G12C, sequence (P01116-2 other isoform, or with tags, fused parts or gaps G12C): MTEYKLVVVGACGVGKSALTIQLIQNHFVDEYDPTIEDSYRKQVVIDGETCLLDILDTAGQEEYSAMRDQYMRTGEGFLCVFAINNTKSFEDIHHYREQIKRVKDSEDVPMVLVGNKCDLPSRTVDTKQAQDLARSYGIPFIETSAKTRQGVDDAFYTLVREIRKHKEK
KRAS G12C, sequence (P62937 whole entry): as the sequence (P62937 whole entry) above
Method in brief: as §1

[8] = target: KRAS G12S (Homo sapiens (Human), UniProt P01116+P62937, G12S); assay: as above; format: biochemical; details: read-out: KRAS G12S FRET IC50
KRAS G12S, sequence (P01116 other isoform, or with tags, fused parts or gaps G12S): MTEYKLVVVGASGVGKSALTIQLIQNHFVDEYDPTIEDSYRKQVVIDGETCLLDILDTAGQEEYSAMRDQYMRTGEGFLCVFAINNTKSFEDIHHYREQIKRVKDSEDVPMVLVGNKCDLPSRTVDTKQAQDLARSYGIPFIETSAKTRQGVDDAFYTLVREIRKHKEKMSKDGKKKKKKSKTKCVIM
KRAS G12S, sequence (P62937 whole entry): as the sequence (P62937 whole entry) above
Method in brief: as §1

[9] = target: KRAS G13C (Homo sapiens (Human), UniProt P01116+P62937, G13C); assay: as above; format: biochemical; details: read-out: KRAS G13C FRET IC50
KRAS G13C, sequence (P01116 other isoform, or with tags, fused parts or gaps G13C): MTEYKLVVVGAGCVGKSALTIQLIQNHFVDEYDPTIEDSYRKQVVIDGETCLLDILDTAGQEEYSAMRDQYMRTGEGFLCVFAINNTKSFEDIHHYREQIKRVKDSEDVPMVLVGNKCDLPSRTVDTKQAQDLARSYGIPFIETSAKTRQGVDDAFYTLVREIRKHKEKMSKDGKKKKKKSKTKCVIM
KRAS G13C, sequence (P62937 whole entry): as the sequence (P62937 whole entry) above
Method in brief: as §1

[10] = target: KRAS G12V (Homo sapiens (Human), UniProt P01116+P62937, G12V); assay: as above; format: biochemical; details: read-out: KRAS G12V FRET IC50
KRAS G12V, sequence (P01116 other isoform, or with tags, fused parts or gaps G12V): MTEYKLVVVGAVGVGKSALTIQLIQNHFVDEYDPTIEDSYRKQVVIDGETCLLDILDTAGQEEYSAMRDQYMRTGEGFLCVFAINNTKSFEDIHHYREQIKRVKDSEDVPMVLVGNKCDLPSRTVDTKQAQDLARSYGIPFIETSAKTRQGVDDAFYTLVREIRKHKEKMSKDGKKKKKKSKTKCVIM
KRAS G12V, sequence (P62937 whole entry): as the sequence (P62937 whole entry) above
Method in brief: as §1

[11] = tested on: K-Ras G12C (NCI-H358 cells); assay: Potency assay: pERK in NCI-H358 cells; format: cell-based, human; details: Homo sapiens; NCI-H358 cells, 4 hours; read-out: pERK EC50 (H358 KRAS G12C)
Method in brief: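 Cells plated the day before were exposed for 4 h at 37° C, 5% CO2 to a 10-point, 3-fold DMSO dilution series (10 mM top stock), in duplicate. Phospho-ERK was read by AlphaLISA SureFire Ultra or by In-Cell Western with DRAQ5 DNA stain, and IC50 came from a 4-parameter sigmoidal fit.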

[12] = tested on: NCI-H358 cells (K-Ras G12C); assay: CellTiter-Glo cell viability, NCI-H358; format: cell-based, human; details: Homo sapiens, NCI-H358, 120 h, K-Ras G12C, 5-day treatment; read-out: H358 Cell Viability IC50
Method in brief: (§2)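 Five-day treatment of K-Ras mutant cells with directly dispensed compound; ATP-based luminescence endpoint. Percent of DMSO signal fit to four-parameter logistic curve.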

[13] = tested on: Capan-1 cells (K-Ras G12V); assay: CellTiter-Glo cell viability, Capan-1; format: cell-based, human; details: Homo sapiens, CAPAN-1, 120 h, K-Ras G12V, 5-day treatment; read-out: Capan-1 Cell Viability IC50
Method in brief: as §2

Row | SMILES | IC50 [1] | IC50 [2] | IC50 [3] | IC50 [4] | IC50 [5] | IC50 [6] | IC50 [7] | IC50 [8] | IC50 [9] | IC50 [10] | EC50 [11] | IC50 [12] | IC50 [13]
1 | CCn1c(-c2cccnc2[C@H](C)OC)c2c3cc(ccc31)-c1csc(n1)C[C@H](NC(=O)[C@H](C(C)C)N(C)C(=O)N1CC([C@@H](C)CO)C1)C(=O)N1CCC[C@H](N1)C(=O)OCC(C)(C)C2 (single isomer, unassigned) [Compound A487] | 0.1 to 1 µM | 0.01 to 0.1 µM | – | – | – | – | – | – | – | – | – | – | –
2 | CCn1c(-c2cnccc2COC)c2c3cc(ccc31)-c1cc(O)cc(c1)C[C@H](NC(=O)[C@H](C(C)C)N(C)C(=O)[C@H]1CCN(C3CCOCC3)C1)C(=O)N1CCC[C@H](N1)C(=O)OCC(C)(C)C2 [Compound A45] | – | 0.01 to 0.1 µM | 0.1 to 1 µM | 0.01 to 0.1 µM | 1 to 10 µM | 0.1 to 1 µM | 0.1 to 1 µM | 0.1 to 1 µM | 0.1 to 1 µM | > 10 µM | < 5 µM | 1 to 10 µM | –
3 | CCn1c(-c2cnccc2COC)c2c3cc(ccc31)-c1cc(O)cc(c1)C[C@H](NC(=O)[C@@H](NC(C)=O)C(C)C)C(=O)N1CCC[C@H](N1)C(=O)OCC(C)(C)C2 [Compound A58] | – | 0.01 to 0.1 µM | > 10 µM | 1 to 10 µM | 1 to 10 µM | 1 to 10 µM | 1 to 10 µM | 1 to 10 µM | 1 to 10 µM | 1 to 10 µM | < 5 µM | 1 to 10 µM | –
4 | CCn1c(-c2cnccc2COC)c2c3cc(ccc31)-c1cc(O)cc(c1)C[C@H](NC(=O)[C@H](C(C)C)N(C)C(=O)c1ncc[nH]1)C(=O)N1CCC[C@H](N1)C(=O)OCC(C)(C)C2 [Compound A64] | – | 0.01 to 0.1 µM | 1 to 10 µM | 0.1 to 1 µM | 0.1 to 1 µM | 0.1 to 1 µM | 0.1 to 1 µM | 0.1 to 1 µM | 1 to 10 µM | 0.1 to 1 µM | < 5 µM | 0.1 to 1 µM | –
5 | CCn1c(-c2cnccc2COC)c2c3cc(ccc31)-c1cc(O)cc(c1)C[C@H](NC(=O)[C@H](C(C)C)N(C)C(=O)[C@@H](C)O)C(=O)N1CCC[C@H](N1)C(=O)OCC(C)(C)C2 [Compound A92] | – | 0.1 to 1 µM | 1 to 10 µM | 1 to 10 µM | 1 to 10 µM | 1 to 10 µM | 1 to 10 µM | 1 to 10 µM | 0.1 to 1 µM | 1 to 10 µM | – | 1 to 10 µM | > 10 µM

Now from value to compound, other results behind:

Row | IC50 [1] | IC50 [2] | IC50 [3] | IC50 [4] | IC50 [5] | IC50 [6] | IC50 [7] | IC50 [8] | IC50 [9] | IC50 [10] | EC50 [11] | IC50 [12] | SMILES | IC50 [13]
6 | – | 0.01 to 0.1 µM | 1 to 10 µM | 0.1 to 1 µM | 0.1 to 1 µM | 0.1 to 1 µM | 0.1 to 1 µM | 0.1 to 1 µM | 0.1 to 1 µM | > 10 µM | < 5 µM | > 10 µM | CCn1c(-c2cnccc2COC)c2c3cc(ccc31)-c1cc(O)cc(c1)C[C@H](NC(=O)[C@H](C(C)C)N(C)C(=O)[C@H]1CCN(C[C@H](C)O)C1)C(=O)N1CCC[C@H](N1)C(=O)OCC(C)(C)C2 [Compound A47] | –
7 | 1 to 10 µM | – | – | – | – | – | – | – | – | – | – | – | CCn1c(-c2cccnc2[C@H](C)OC)c2c3cc(ccc31)-c1cc(O)cc(c1)C[C@H](NC(=O)[C@H](C(C)C)N(C)C(=O)[C@H]1CCN(C)C1)C(=O)N1CCC[C@H](N1)C(=O)OCC(C)(C)C2 [Compound A100] | –
8 | 1 to 10 µM | – | – | – | – | – | – | – | – | – | – | – | CCn1c(-c2cccnc2[C@H](C)OC)c2c3cc(ccc31)-c1csc(n1)C[C@H](NC(=O)[C@H](C(C)C)N(C)C(=O)[C@H]1CCN(C(=O)CN)C1)C(=O)N1CCC[C@H](N1)C(=O)OCC(C)(C)C2 [Compound A106] | –
9 | 0.1 to 1 µM and < 0.01 µM | – | – | – | – | – | – | – | – | – | < 5 µM | – | CCn1c(-c2cccnc2[C@H](C)OC)c2c3cc(ccc31)-c1cccc(c1)C[C@H](NC(=O)[C@H](C(C)C)N(C)C(=O)[C@H]1CCN(C(=O)C(C)(C)N(C)C)C1)C(=O)N1CCC[C@H](N1)C(=O)OCC(C)(C)C2 [Compound A112] | –
